pIC50, pKi: −log10 of the molar value.
Key:
[1] = target: T1, recombinant human JAK1 kinase domain protein (Residues 854-1154) (Homo sapiens, UniProt P23458); assay: JAK1 biochemical assay (LabChip mobility shift, Ki); conditions: read-out: Biochem JAK1 Ki
T1 construct: human JAK1 kinase domain protein (Residues 854-1154); purchased Proteros Biostructures GmbH (Martinsried, Germany); host or cells: insect cells

[2] = target: Recombinant human JAK2 kinase domain protein (Residues 812-1132) (Homo sapiens, UniProt O60674); assay: JAK2 biochemical assay (LabChip mobility shift, Ki); conditions: Biochem JAK2 Ki
Chain of Recombinant human JAK2 kinase domain protein (Residues 812-1132) (O60674 812-1132): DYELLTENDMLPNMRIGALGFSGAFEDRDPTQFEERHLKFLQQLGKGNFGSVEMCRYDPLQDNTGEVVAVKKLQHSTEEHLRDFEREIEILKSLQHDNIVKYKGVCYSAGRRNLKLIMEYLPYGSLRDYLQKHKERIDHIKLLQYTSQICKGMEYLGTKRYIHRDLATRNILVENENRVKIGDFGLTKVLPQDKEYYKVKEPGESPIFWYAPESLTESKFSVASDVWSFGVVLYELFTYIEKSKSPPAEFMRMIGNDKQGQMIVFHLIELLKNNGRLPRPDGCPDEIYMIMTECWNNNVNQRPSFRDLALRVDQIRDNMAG

[3] = tested on: IL-13-stimulated STAT6 phosphorylation in human lung bronchial epithelial BEAS-2B cell line; assay: P-STAT6 BEAS-2B + IL-13 cell assay; assay type: cell-based; conditions: Homo sapiens, BEAS-2B, BEAS2B cells, IL13 stimulation; read-out: Cellular JAK1 PSTAT6 BEAS2B + IL13
How it was run: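 BEAS-2B cells grown 48 h at 37 °C, pre-treated 1 h with compound (10-point 1:2 dilution curve), then stimulated 15 min with human recombinant IL-13 (250 ng/mL stock). Lysate P-STAT6 (Tyr641) read by MSD sandwich ELISA with total-STAT6 capture; IC50 from four-parameter logistic fit of control-normalised data.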

T1 sequence (P23458 854-1154): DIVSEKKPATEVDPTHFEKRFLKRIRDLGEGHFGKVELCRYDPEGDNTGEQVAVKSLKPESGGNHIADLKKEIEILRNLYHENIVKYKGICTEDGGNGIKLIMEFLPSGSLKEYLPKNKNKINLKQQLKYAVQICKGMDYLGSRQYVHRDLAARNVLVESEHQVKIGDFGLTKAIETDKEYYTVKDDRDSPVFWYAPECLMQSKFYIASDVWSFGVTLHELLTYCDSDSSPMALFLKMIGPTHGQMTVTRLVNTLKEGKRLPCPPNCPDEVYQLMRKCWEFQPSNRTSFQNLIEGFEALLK

Row | Compound | pKi [1] | pKi [2] | pIC50 [3]
1 | Cn1cc(NC(=O)c2cnn3cccnc23)c(-c2cc(Oc3ccc(CN4CCCC4CO)cc3)ccc2OC(F)F)n1 (racemic) [Example 165, N-[3-[2-(difluoromethoxy)-5-[4-[[rac-(2S)-2-(hydroxymethyl)pyrrolidin-1-yl]methyl]phenoxy]phenyl]-1-methyl-pyrazol-4-yl]pyrazolo[1,5-a]pyrimidine-3-carboxamide] | 8.77 | 9.25 | 7.51
2 | Cn1cc(NC(=O)c2cnn3cccnc23)c(-c2cc(Oc3ccc(CN4CCCC(O)C4)cc3)ccc2OC(F)F)n1 (racemic) [Example 164, N-[3-[2-(difluoromethoxy)-5-[4-[[rac-(3S)-3-hydroxy-1-piperidyl]methyl]phenoxy]phenyl]-1-methyl-pyrazol-4-yl]pyrazolo[1,5-a]pyrimidine-3-carboxamide] | 8.49 | 8.82 | 7.42
3 | CNC(=O)c1ccc(Oc2ccc(OC(F)F)c(-c3nn(C)cc3NC(=O)c3cnn4cccnc34)c2)cc1 [Example 131, N-[3-[2-(difluoromethoxy)-5-[4-(methylcarbamoyl)phenoxy]phenyl]-1-methyl-pyrazol-4-yl]pyrazolo[1,5-a]pyrimidine-3-carboxamide] | 9.39 | 9.62 | 7.64
4 | CC(=O)c1cc(Oc2ccc(OC(F)F)c(-c3n[nH]cc3NC(=O)c3cnn4cccnc34)c2)ccc1C [Example 44, N-[3-[5-(3-acetyl-4-methyl-phenoxy)-2-(difluoromethoxy)phenyl]-1H-pyrazol-4-yl]pyrazolo[1,5-a]pyrimidine-3-carboxamide] | 9.35 | 9.62 | 8.24
5 | CN1CCc2ccc(Oc3ccc(OC(F)F)c(-c4n[nH]cc4NC(=O)c4cnn5cccnc45)c3)cc2C1 [Example 36, N-[3-[2-(difluoromethoxy)-5-[(2-methyl-3,4-dihydro-1H-isoquinolin-7-yl)oxy]phenyl]-1H-pyrazol-4-yl]pyrazolo[1,5-a]pyrimidine-3-carboxamide] | 9.29 | 9.60 | 7.96
6 | Cc1n[nH]cc1Oc1ccc(OC(F)F)c(-c2nn(C)cc2NC(=O)c2cnn3cccnc23)c1 [Example 151, N-[3-[2-(difluoromethoxy)-5-[(3-methyl-1H-pyrazol-4-yl)oxy]phenyl]-1-methy1-pyrazol-4-yl]pyrazolo[1,5-a]pyrimidine-3-carboxamide] | 9.54 | 9.70 | 7.72
7 | Cn1cc(NC(=O)c2cnn3cccnc23)c(-c2cc(Oc3ccc(C4(CC#N)CNC4)cc3)ccc2OC(F)F)n1 [Example 148, N-[3-[5-[4-[3-(cyanomethyl)azetidin-3-yl]phenoxy]-2-(difluoromethoxy)phenyl]-1-methyl-pyrazol-4-yl]pyrazolo[1,5-a]pyrimidine-3-carboxamide] | 8.44 | 8.72 | 6.68
8 | O=C(Nc1c[nH]nc1-c1cc(Oc2cccc(CNCCO)c2)ccc1OC(F)F)c1cnn2cccnc12 [Example 16, N-[3-[2-(difluoromethoxy)-5-[3-[(2-hydroxyethylamino)methyl]phenoxy]phenyl]-1H-pyrazol-4-yl]pyrazolo[1,5-a]pyrimidine-3-carboxamide] | 9.66 | 9.72 | 6.77
9 | CN(C)C(=O)c1ccc(Oc2ccc(OC(F)F)c(-c3nn(C)cc3NC(=O)c3cnn4cccnc34)c2)cc1 [Example 88, N-[3-[2-(difluoromethoxy)-5-[4-(dimethylcarbamoyl)phenoxy]phenyl]-1-methyl-pyrazol-4-yl]pyrazolo[1,5-a]pyrimidine-3-carboxamide] | 9.51 | 9.62 | 7.82
10 | NCc1cccc(Oc2ccc(OC(F)F)c(-c3n[nH]cc3NC(=O)c3cnn4cccnc34)c2)c1F [Example 24, N-[3-[5-[3-(aminomethyl)-2-fluoro-phenoxy]-2-(difluoromethoxy)phenyl]-1H-pyrazol-4-yl]pyrazolo[1,5-a]pyrimidine-3-carboxamide] | 9.19 | 9.25 | 7.66
11 | CCn1cc(NC(=O)c2cnn3cccnc23)c(-c2cc(Oc3cc(F)cc(C4(O)CNC4)c3)ccc2OC(F)F)n1 [Example 111, N-[3-[2-(difluoromethoxy)-5-[3-fluoro-5-[3-hydroxyazetidin-3-yl)phenoxy]phenyl]-1-ethyl-pyrazol-4-yl]pyrazolo[1,5-a]pyrimidine-3-carboxamide] | 9.42 | 9.25 | 6.57
12 | Cn1cc(NC(=O)c2cnn3cccnc23)c(-c2cc(Oc3ccc(CC(=O)N4CCOCC4)cc3)ccc2OC(F)F)n1 [Example 156, N-[3-[2-(difluoromethoxy)-5-[4-(2-morpholino-2-oxo-ethyl)phenoxy]phenyl]-1-methyl-pyrazol-4-yl]pyrazolo[1,5-a]pyrimidine-3-carboxamide] | 9.57 | 9.92 | 7.64
13 | O=C(Nc1c[nH]nc1-c1cc(Oc2cccc(C3CNCCO3)c2)ccc1OC(F)F)c1cnn2cccnc12 (stereo not drawn) [Example 9, N-[3-[2-(difluoromethoxy)-5-(3-morpholin-2-ylphenoxy)phenyl]-1H-pyrazol-4-yl]pyrazolo[1,5-a]pyrimidine-3-carboxamide] | 9.47 | 9.44 | 7.03
14 | Cn1cc(NC(=O)c2cnn3cccnc23)c(-c2cc(Oc3cc(F)cc(C4(O)CNC4)c3)ccc2OC(F)F)n1 [Example 95, N-[3-[2-(difluoromethoxy)-5-[3-fluoro-5-(3-hydroxyazetidin-3-yl)phenoxy]phenyl]-1-methyl-pyrazol-4-yl]pyrazolo[1,5-a]pyrimidine-3-carboxamide] | 9.77 | 9.64 | 6.96
15 | Cn1cc(NC(=O)c2cnn3cccnc23)c(-c2cc(Oc3cnn([C@H]4CNCC[C@@H]4O)c3)ccc2OC(F)F)n1 (stereo in doubt) [Example 180, N-[3-[2-(difluoromethoxy)-5-[1-[rac-(3S,4S)-4-hydroxy-3-piperidyl]pyrazol-4-yl]oxy-phenyl]-1-methyl-pyrazol-4-yl]pyrazolo[1,5-a]pyrimidine-3-carboxamide] | 9.54 | 9.64 | 7.02
16 | CN1CCC(O)(Cn2cc(Oc3ccc(OC(F)F)c(-c4nn(C)cc4NC(=O)c4cnn5cccnc45)c3)cn2)CC1 [Example 191, N-[3-[2-(difluoromethoxy)-5-[1-[(4-hydroxy-1-methyl-4-piperidyl)methyl]pyrazol-4-yl]oxy-phenyl]-1-methyl-pyrazol-4-yl]pyrazolo[1,5-a]pyrimidine-3-carboxamide] | 9.27 | 9.72 | 6.96
17 | COCCNCc1cccc(Oc2ccc(OC(F)F)c(-c3nn(C)cc3NC(=O)c3cnn4cccnc34)c2)c1 [Example 27, N-[3-[2-(difluoromethoxy)-5-[3-[(2-methoxyethylamino)methyl]phenoxy]phenyl]-1-methyl-pyrazol-4-yl]pyrazolo[1,5-a]pyrimidine-3-carboxamide] | 9.14 | 9.26 | 7.70
18 | Cn1cc(NC(=O)c2cnn3cccnc23)c(-c2cc(Oc3ccc(C4(CC#N)COC4)cc3)ccc2OC(F)F)n1 [Example 147] | 9.55 | 9.66 | 7.72
19 | CN(CCO)Cc1cccc(Oc2ccc(OC(F)F)c(-c3nn(C)cc3NC(=O)c3cnn4cccnc34)c2)c1 [Example 22] | 9.47 | 9.51 | 7.66

From US12528812B2 (Genentech, Inc., priority 2020, dated 2026)
